Each block holds one compound with its values, some of them ahead of it.
Key:
[1] = test system: LNCaP-abl cells; test: Cell proliferation assay, LNCaP-abl cells; assay type: cell-based; settings: 72 hours
[2] = test system: LNCaP-abl cells; test: Clonogenic assay, LNCaP-abl cells; assay type: cell-based; settings: 10 μM, 10 days
[3] = in vitro; settings: rat, liver microsomes
[4] = test system: UBE2C; test: UBE2C mRNA expression in LNCaP-95 cells; assay type: cell-based; settings: 10 μM, 48 hours
[5] = in vitro; settings: liver microsomes

SMILES: CNC(=O)c1ccc(N2C(=S)N(c3cnc(C#N)c(C(F)(F)F)c3)C(=O)C23CCC3)cc1F [ARN509]
effect on LNCaP-abl cellular proliferation ([1]; 10 μM): not growth inhibited
effect on colony formation [2]: Neither enzalutamide nor ARN509 could effectively prevent colony formation

remaining at 1 h, 1.09 µM [3]: 58.7%
SMILES: CC(C)NCC(O)COc1cccc2ccccc12 (stereo not shown) [Propranolol, propranolol]

SMILES: CNC(=O)c1ccc(N2C(=S)N(c3ccc(C#N)c(C(F)(F)F)c3)C(=O)C2(C)C)cc1F [enzalutamide]
effect on colony formation [2]: Neither enzalutamide nor ARN509 could effectively prevent colony formation
UBE2C mRNA expression [4]: significantly increased UBE2C mRNA expression

SMILES: C#C[C@]1(O)CC[C@H]2[C@@H]3CCC4=CC(=O)CC[C@]4(C)[C@H]3CC[C@@]21C [ethisterone]
EC50 (concentration required to inhibit the proliferation by 50%) ([1]; highest concentration tested 100 μM): failed to reach 50% inhibition at the maximal concentration tested

half-life at 1.09 µM [5]: ~1.33 h
SMILES: CCOc1ccc(NC(C)=O)cc1 [phenacetin]

From PMC5010535 (Cancer research, 2016)
